# Experimental data published in patent EP0642504B1 (priority 1991, dated 1993).
# Marks after values point to notes of the source that are not given here.
# Legend:
# PAF-Induced Paw Edema = assay: PAF-induced paw edema (water displacement); type: in vivo, CD-1 female mice; details: oral, 15 min after PAF (1.0 µg s.c.), vs vehicle treated controls
# Description: A second model, in which edema is induced by platelet activating factor (PAF), was used to evaluate activity.
# The conditions were based on those reported previously [Calhoun et al., ibid.]. […] PAF (1.0 µg) or arachidonic acid (1.0 mg) dissolved in 50 µl of 5% ethanol in saline, were injected s.c. into the plantar surface of the right hind paw of CD-1 female mice (20-25 g) obtained from Charles River Labs. The mice were under ether anesthesia during this procedure. The volume of the right foot was measured to the level of the lateral malleous by water displacement before treatment and 15 min after PAF injection or 30 min after archidonate injection. The change in paw volume was calculated for each mouse and the significance for each group was determined by a paired t test analysis.
# peritoneal leukocytes = assay: Leukocyte adhesion assay, peritoneal cells collected after oral dosing; type: in vivo, CD-1 mice; details: cells collected 90 min after administration; for number of adhering cells x 10^-6 ± S.D.: 18-20 hours incubation
# Description: Leukocytes are thought to be major contributors to the inflammatory response and their ability in this regard is reflected by their adhesiveness to a variety of substrates [Audette, C.A., et al., Life Sci., 47, 753 (1990)].
# The details of the leukocytes adhesion assay have been previously reported [Audette et al., ibid.]. In brief, peritoneal cells from femals CD-1 mice (20-25 g) were collected at 90 min following oral administration of the drug or vehicle (50 µl peanut oil). Cells from each treatment group (N=3) were pooled and equal numbers aliquoted into six culture dish wells (1.9 cm^2 area). After incubation for 18-20 hours, non-adhering cells were removed and the remaining cell monolayer quantitated by DNA measurement.
# [1] = tested on: strychnine induced lethality; assay: Protection against strychnine induced lethality; type: in vivo; details: rats
# Description: The present compounds are active in several tests generally used to indicate neuroprotection.
# NMDA receptor = assay: NMDA-blocking response in Xenopus oocytes injected with rat brain RNA (two-electrode voltage clamp); type: cell-based
# Description: The oocyte is the most widely used system for studying the molecular, biophysical and pharmacological properties of expressed voltage- or transmitter-operated ion channels. This giant cell offers several advantages for this type of studies. It can be readily used for two-electrode voltage clamp studies, translates injected mRNA from different sources and functionally expresses the translated proteins, and it is also readily amenable for intracellular microinjections. Importantly, the recordings of transmitter- or voltage-incuded currents in a single oocyte are extremely stable and can be done, without rundown, for 2-3 hours; this allows the performance of a full dose-response relation in single oocytes.
# Neuronal receptors for excitatory amino acid (EAA) are becoming increasingly important for the understanding of normal and pathological brain function. Quantitative pharmacological studies of EAA receptor/ion channel complex are difficult to study in neurons. Therefore, Xenopus oocyte injected with brain mRNA is now the preparation of choice.
# The response to N-methyl-D-aspartate (NMDA) in oocytes injected with rat brain mRNA was characterized and the effects of HU-245 were studied.
# Female Xenopus were anesthetized by immersion in water containing 0.15% tricaine methanesulfonate and a small incision was made in the lower adbomen. Ovary fragments were removed into ND-96. […]
# [2] = Solubility in the oocyte test medium; type: physicochemical
# Description: Several NMDA receptor blockers were tested. These compounds have very low solubility and have to be dissolved in 100% dimethyl sulfoxide (DMSO) and diluted for use in ND 96 that contained 1% DMSO. Therefore, the effect of 1% DMSO on the response to 10-^4 M NMDA and 5x10-^6 M glycine was examined. DMSO had no effect on NMDA response in three different cells.
# The effect of HU-245 was reversible upon return to ND 96 solution.
structure (smiles),measurement,setting,value
"CCCCCCC(C)(C)c1cc(OC(C)=O)c2c(c1)OC(C)(C)[C@H]1CC=C(C(=O)O)C[C@H]21 [HU-245, (3S,4S)-THC-DMH-7-oic acid, acetate]",percent inhibition of paw edema,PAF-Induced Paw Edema; dose 0.10 mg/kg,37.3* percent
same,percent inhibition of paw edema,PAF-Induced Paw Edema; dose 0.25 mg/kg,66.9* percent
same,percent inhibition of paw edema,PAF-Induced Paw Edema; dose 0.5 mg/kg,72.0* percent
same,"adhering cells, percent of control",peritoneal leukocytes; dose 0.05 mg/kg oral,105% of control
same,number of adhering cells x 10^-6 ± S.D.,peritoneal leukocytes; dose 0.05 mg/kg oral,1.32±0.04 x 10^-6
same,"adhering cells, percent of control",peritoneal leukocytes; dose 0.10 mg/kg oral,52% of control
same,number of adhering cells x 10^-6 ± S.D.,peritoneal leukocytes; dose 0.10 mg/kg oral,0.66±0.05 x 10^-6
same,"adhering cells, percent of control",peritoneal leukocytes; dose 0.50 mg/kg oral,67% of control
same,number of adhering cells x 10^-6 ± S.D.,peritoneal leukocytes; dose 0.50 mg/kg oral,0.85±0.08 x 10^-6
same,"adhering cells, percent of control",peritoneal leukocytes; dose 1.00 mg/kg oral,24% of control
same,number of adhering cells x 10^-6 ± S.D.,peritoneal leukocytes; dose 1.00 mg/kg oral,0.30±0.04 x 10^-6
same,protection against strychnine induced lethality,[1],protects against strychnine induced lethality
same,response to NMDA,"NMDA receptor; 10-^6M compound, 10-^4 M NMDA and 5x10-^6 M glycine, membrane potential -60mV, 1 µM",55 % of control
same,reversibility of the effect on the NMDA response,NMDA receptor; upon return to ND 96 solution,reversible
same,solubility compared with prior art compounds,[2],higher than that of prior art compounds
same,solubility,"[2]; nd 96 with 1% dmso, organic solvent or mixture, ND 96 containing 1% DMSO, read-out: solubility (soluble at a concentration of up to)",≤ 0.1 µM
